According to patent publication US8541397B2, “Alkyne and alkene derivatives as sphingosine 1-phosphate-1 receptor modulators” (Allergan, Inc., priority 2010, dated 2013):
pEC50: −log10 of the molar value.

molecular target: T1, human S1P1 receptor (Homo sapiens, UniProt P21453); assay: GTP γ35S binding assay for S1P1 activity; type: biochemical; settings: activity potency, S1P1 receptor from GTP γ35S binding; membranes; test compounds 0.08 to 5,000 nM
T1 construct: expressed in transfected cells; membranes used
T1 sequence (P21453 whole entry): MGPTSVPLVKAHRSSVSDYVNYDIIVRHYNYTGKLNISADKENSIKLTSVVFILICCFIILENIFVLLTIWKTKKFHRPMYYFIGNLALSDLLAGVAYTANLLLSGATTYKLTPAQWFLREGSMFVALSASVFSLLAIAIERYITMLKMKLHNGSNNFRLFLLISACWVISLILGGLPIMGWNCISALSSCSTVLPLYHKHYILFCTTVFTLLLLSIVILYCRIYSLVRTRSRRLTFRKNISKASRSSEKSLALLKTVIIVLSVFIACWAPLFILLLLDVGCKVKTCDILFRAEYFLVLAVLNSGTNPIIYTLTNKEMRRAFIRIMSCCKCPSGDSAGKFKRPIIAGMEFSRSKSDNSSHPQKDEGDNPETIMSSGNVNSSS
Method: Compounds were synthesized and tested for S1P1 activity using the GTP γ^35S binding assay. These compounds may be assessed for their ability to activate or block activation of the human S1P1 receptor in cells stably expressing the S1P1 receptor.
GTP γ^35S binding was measured in the medium containing (mM) HEPES 25, pH 7.4, MgCl2 10, NaCl 100, dithitothreitol 0.5, digitonin 0.003%, 0.2 nM GTP γ^35S, and 5 μg membrane protein in a volume of 150 μl. Test compounds were included in the concentration range from 0.08 to 5,000 nM unless indicated otherwise. Membranes were incubated with 100 μM 5′-adenylylimmidodiphosphate for 30 min, and subsequently with 10 μM GDP for 10 min on ice. Drug solutions and membrane were mixed, and then reactions were initiated by adding GTP γ^35S and continued for 30 min at 25° C. Reaction mixtures were filtered over Whatman GF/B filters under vacuum, and washed three times with 3 mL of ice-cold buffer (HEPES 25, pH7.4, MgCl2 10 and NaCl 100). Filters were dried and mixed with scintillant, and counted for ^35S activity using a β-counter. Agonist-induced GTP γ^35S binding was obtained by subtracting that in the absence of agonist. Binding data were analyzed using a non-linear regression method. In case of antagonist assay, the reaction mixture contained 10 nM S1P in the presence of test antagonist at concentrations ranging from 0.08 to 5000 nM.

| pEC50 | Structure (SMILES) |
| --- | --- |
| 6.58 | Cc1ccc(CC(C#Cc2ccc(CNCCC(=O)O)cc2C)c2cccc(Cl)c2)cc1C (stereo not drawn) [Compound 2, 3-{4-[3-(3-Chloro-phenyl)-4-(3,4-dimethyl-phenyl)-but-1-ynyl]-3-methyl-benzylamino}-propionic acid] |
| 7.18 | Cc1ccc(CC(C#Cc2ccc(CNCCC(=O)O)cc2)c2cccc(Cl)c2)cc1C (stereo not drawn) [Compound 3, 3-({4-[3-(3-chlorophenyl)-4-(3,4-dimethylphenyl)but-1-yn-1-yl]benzyl}amino)propanoic acid] |
| 5.72 | Cc1ccc(CC(C#Cc2ccc(CNCCCP(=O)(O)O)cc2C)c2cccc(F)c2)cc1C (stereo not drawn) [Compound 12, [3-({4-[4-(3,4-dimethylphenyl)-3-(3-fluorophenyl)but-1-yn-1-yl]-3-methylbenzyl}amino)propyl]phosphonic acid] |
| 8.22 | Cc1ccc(CC(C#Cc2ccc(CNCCCP(=O)(O)O)cc2Br)c2cccc(F)c2)cc1C (stereo not drawn) [Compound 13, [3-({3-bromo-4-[4-(3,4-dimethylphenyl)-3-(3-fluorophenyl)but-1-yn-1-yl]benzyl}amino)propyl]phosphonic acid] |
| 6.62 | Cc1ccc(CC(C#Cc2ccc(OCC(O)CO)c(Cl)c2)c2cccc(Cl)c2)cc1C (stereo not drawn) [Compound 19, 3-{2-chloro-4-[3-(3-chlorophenyl)-4-(3,4-dimethylphenyl)but-1-yn-1-yl]phenoxy}propane-1,2-diol] |
| 6.22 | Cc1ccc(CC(C#Cc2ccc(OCC(O)CO)c(Cl)c2)c2cccc(F)c2)cc1C (stereo not drawn) [Compound 20, 3-{2-chloro-4-[4-(3,4-dimethylphenyl)-3-(3-fluorophenyl)but-1-yn-1-yl]phenoxy}propane-1,2-diol] |
| 6.40 | Cc1cccc(C(C#Cc2ccc(OCC(O)CO)c(Cl)c2)Cc2ccc(C)c(C)c2)c1 (stereo not drawn) [Compound 21, 3-{2-chloro-4-[4-(3,4-dimethylphenyl)-3-(3-methylphenyl)but-1-yn-1-yl]phenoxy}propane-1,2-diol] |

More lines, now with the values behind:

| Structure (SMILES) | pEC50 |
| --- | --- |
| COc1cccc(C(C#Cc2ccc(CNCCC(=O)O)cc2)Cc2ccc(C)c(C)c2)c1 (stereo not drawn) [Compound 1, 3-({4-[4-(3,4-dimethylphenyl)-3-(3-methoxyphenyl)but-1-yn-1-yl]benzyl}amino)propanoic acid] | 6.61 |
| Cc1cccc(C(C#Cc2ccc(CNCCC(=O)O)cc2)Cc2ccc(C)c(C)c2)c1 (stereo not drawn) [Compound 4, 3-({4-[4-(3,4-dimethylphenyl)-3-(3-methylphenyl)but-1-yn-1-yl]benzyl}amino)propanoic acid] | 6.30 |
| Cc1ccc(CC(C#Cc2ccc(CNCCC(=O)O)cc2)c2ccc(Cl)cc2)cc1C (stereo not drawn) [Compound 5, 3-({4-[3-(4-chlorophenyl)-4-(3,4-dimethylphenyl)but-1-yn-1-yl]benzyl}amino)propanoic acid] | 6.32 |
| COc1cccc(C(C#Cc2ccc(CNCCCP(=O)(O)O)cc2)Cc2ccc(C)c(C)c2)c1 (stereo not drawn) [Compound 7, (3-{4-[4-(3,4-Dimethyl-phenyl)-3-(3-methoxy-phenyl)-but-1-ynyl]-benzylamino}-propyl)-phosphonic acid] | 6.80 |
| Cc1ccc(CC(C#Cc2ccc(CNCCCP(=O)(O)O)cc2)c2cccc(Cl)c2)cc1C (stereo not drawn) [Compound 8, (3-{4-[3-(3-Chloro-phenyl)-4-(3,4-dimethyl-phenyl)-but-1-ynyl]-benzylamino}-propyl)-phosphonic acid] | 7.12 |
| Cc1cccc(C(C#Cc2ccc(CNCCCP(=O)(O)O)cc2)Cc2ccc(C)c(C)c2)c1 (stereo not drawn) [Compound 9, (3-{4-[4-(3,4-Dimethyl-phenyl)-3-m-tolyl-but-1-ynyl]-benzylamino}-propyl)-phosphonic acid] | 6.93 |
| Cc1ccc(CC(C#Cc2ccc(CNCCCP(=O)(O)O)cc2C)c2cccc(Cl)c2)cc1C (stereo not drawn) [Compound 10, (3-{4-[3-(3-Chloro-phenyl)-4-(3,4-dimethyl-phenyl)-but-1-ynyl]-3-methyl-benzylamino}-propyl)-phosphonic acid] | 7.75 |
| Cc1cccc(C(C#Cc2ccc(CNCCCP(=O)(O)O)cc2C)Cc2ccc(C)c(C)c2)c1 (stereo not drawn) [Compound 11, [3-({4-[4-(3,4-dimethylphenyl)-3-(3-methylphenyl)but-1-yn-1-yl]-3 methylbenzyl}amino)propyl]phosphonic acid] | 7.25 |
| Cc1ccc(CC(C#Cc2ccc(CNCCCP(=O)(O)O)cc2-c2ccco2)c2cccc(F)c2)cc1C (stereo not drawn) [Compound 14, [3-({4-[4-(3,4-dimethylphenyl)-3-(3-fluorophenyl)but-1-yn-1-yl]-3-(2-furyl)benzyl}amino)propyl]phosphonic acid] | 6.62 |
| Cc1cccc(C(C#Cc2ccc(CNCCCP(=O)(O)O)cc2-c2cccs2)Cc2ccc(C)c(C)c2)c1 (stereo not drawn) [Compound 15, [3-({4-[4-(3,4-dimethylphenyl)-3-(3-methylphenyl)but-1-yn-1-yl]-3-(2-thienyl)benzyl}amino)propyl]phosphonic acid] | 6.75 |
| Cc1ccc(CC(C#Cc2ccc(CNCCCP(=O)(O)O)cc2Br)c2cc(F)cc(F)c2)cc1C (stereo not drawn) [Compound 16, [3-({3-bromo-4-[3-(3,5-difluorophenyl)-4-(3,4-dimethylphenyl)but-1-yn-1-yl]benzyl}amino)propyl]phosphonic acid] | 7.51 |
| Cc1cccc(C(C#Cc2ccc(CNCCCP(=O)(O)O)cc2-c2ccco2)Cc2ccc(C)c(C)c2)c1 (stereo not drawn) [Compound 17, [3-({4-[4-(3,4-dimethylphenyl)-3-(3-methylphenyl)but-1-yn-1-yl]-3-(2-furyl)benzyl}amino)propyl]phosphonic acid] | 7.23 |
| Cc1ccc(CC(/C=C/c2ccc(CNCCC(=O)O)cc2)c2cccc(F)c2)cc1C (stereo not drawn) [Compound 22, 3-({4-[(1E)-4-(3,4-dimethylphenyl)-3-(3-fluorophenyl)but-1-en-1-yl]benzyl}amino)propanoic acid] | 6.58 |
| Cc1ccc(CC(/C=C/c2ccc(CNCCCP(=O)(O)O)cc2)c2cccc(F)c2)cc1C (stereo not drawn) [Compound 23, [3-({4-[(1E)-4-(3,4-dimethylphenyl)-3-(3-fluorophenyl)but-1-en-1 yl]benzyl}amino)propyl]phosphonic acid] | 6.76 |
